Where a name gives a salt, the structure may show the parent alone.
Assays:
CD-1 mice [1] = assay: Forced swim test; type: in vivo
CD-1 mice [2] = assay: Tail suspension test; type: in vivo; conditions: pilot studies, fluoxetine 10 mg/kg; control 6.9 ± 0.7 N
CD-1 mice [3] = assay: Sucrose consumption test; conditions: fluoxetine 10 mg/kg, vs saline-treated controls
μ-receptors = assay: Isolated guinea-pig ileum, DAMGO concentration-response curves; conditions: agonist at maximal doses
δ-receptor = δ-receptor (Rattus norvegicus, UniProt P33533); assay: [3H]-diprenorphine competitive binding assay, C6-δ cell membranes
κ-receptors [4] = target: κ-receptors (Cavia porcellus, UniProt P41144); assay: Isolated guinea-pig ileum, U50,488 concentration-response curves
CD-1 mice [5] = assay: Warm water tail-withdrawal test, block of U50,488-induced antinociception; type: in vivo; conditions: U50,488 10 mg/kg, single injection
Wistar rats = assay: κ-agonist; type: in vivo; conditions: 1 mg/kg
CD-1 mice [6] = assay: Elevated-plus maze; type: in vivo
κ-receptors [7] = conditions: single injection, ref Endoh et al., 1992, Jones and Holtzman; cited from earlier work
rat = conditions: 20mg/kg; ref Wiley et al., 2009; cited from earlier work
rats = conditions: ref Wiley et al., 2009; cited from earlier work
human κ-receptor = human κ-receptor (Homo sapiens, UniProt P41145); assay: [3H]-diprenorphine competitive binding assay, CHO-κ cell membranes; conditions: from Ki values, Table 1
CD-1 mice [8] = assay: Light dark box; type: in vivo; conditions: 8 and 15 d post-injection; diazepam 1 mg/kg 30 min prior
[9] = diazepam 1 mg/kg 30 min prior to test, each test day

CNCCC(Oc1ccc(C(F)(F)F)cc1)c1ccccc1 (centres unmarked) [fluoxetine, fluoxetine hydrochloride]
FST time spent immobile (CD-1 mice [1]; fluoxetine 10 mg/kg 30 min prior, days 6 and 13): decreased the time spent immobile
TST average force (CD-1 mice [2]): 7.7 ± 0.5 N
increase in sucrose consumption (CD-1 mice [3]): 40%

DAMGO
inhibition of electrically-evoked twitches (μ-receptors): ~ 90%

Oc1ccc2c3c1O[C@H]1c4[nH]c5c(c4C[C@@]4(O)[C@@H](C2)N(CC2CC2)CC[C@]314)C[C@@]1(O)[C@H]2Cc3ccc(O)c4c3[C@@]1(CCN2CC1CC1)[C@H]5O4 [norBNI, Norbinaltorphimine]
Ki (δ-receptor): 0.46 ± 0.09 nM
reversibility of κ-antagonist effect on washout (κ-receptors [4]): reversed on washout
effect on U50,488 Emax (κ-receptors [4]; increasing antagonist concentrations): without significant affect on Emax
pA2 Schild plot (+ 95% CI), κ (κ-receptors [4]; vs U50,488, n=4 tissues): 8.30
effect on antinociceptive effects of U50,488 (overall) (CD-1 mice [5]): significantly reduced the antinociceptive effects of U50,488
reduction of U50,488-evoked diuresis (Wistar rats; 8 d post-treatment): about 30%
reduction of U50,488-evoked diuresis (Wistar rats; 15 d post-treatment): maintained at 15 d post-treatment
EPM number of entries into the open arms (CD-1 mice [6]; 7 d post-injection): significantly increased
EPM time spent in the open arms (CD-1 mice [6]; 7 d post-injection): significantly increased the time spent
EPM time spent in the open arms (CD-1 mice [6]; 14 d post-injection, 1 and 10 mg/kg): significantly increased the time spent in the open arms
FST time spent immobile (CD-1 mice [1]; 6 and 13 d post-injection of antagonist): significantly decreased the time spent immobile
behavioural effects in the FST still apparent, time post-injection (CD-1 mice [1]; single injection): up to 13 days post-injection
time maximal levels maintained (κ-receptors [7]): 7 to 10 days
time of peak effects post-administration (κ-receptors [7]): ~ 24 h
time of returning to control levels (κ-receptors [7]): 3–4 weeks
duration of antidepressant-like effects in the rat FST (rat): up to 4 wks post-injection
effect on sucrose (0.5%) consumption (rats): had no effect on sucrose (0.5%) consumption
reversal of the effects of U50,488 on sucrose consumption (rats): did reverse the effects of U50,488

NC(N)=Nc1ccc2[nH]c3c(c2c1)C[C@@]1(O)[C@H]2Cc4ccc(O)c5c4[C@@]1(CCN2CC1CC1)[C@H]3O5 [GNTI, 5’-guanidinonaltrindole]
κ-selectivity vs. δ (human κ-receptor): ~4

CN1C(=O)CN=C(c2ccccc2)c2cc(Cl)ccc21 [diazepam]
EPM entries into the open arms (CD-1 mice [6]; [9]): significantly increased
EPM time spent in the open arms (CD-1 mice [6]; [9]): significantly increased
LDB time spent in the lit compartment (CD-1 mice [8]): significantly different from saline treated controls
